# Measured values reported in patent publication US8476197B2, “Aminopropenoates as fungicides” (priority 2009, dated 2013).
# Marks after values point to notes of the source that are not given here.
# Conditions: pH 2.3
row,SMILES,Log P
1,CCOC(=O)C(C#N)=C(NC(C)c1nccs1)c1cccnc1F (stereo not drawn) [Compound 79],2.47

# Same assay, conditions: pH 2.7
row,SMILES,Log P
1,CCOC(=O)C(C#N)=C(NCc1nccs1)c1cn(C)nc1C(F)F [Compound 68],2^[a]
2,CCOC(=O)C(C#N)=C(NC(c1cc2ccccc2s1)C(F)(F)F)c1nsc(Cl)c1Cl (stereo not drawn) [Compound 69],5.11^[a]
3,CCOC(=O)C(C#N)=C(NCc1ccccn1)c1nsc(Cl)c1Cl [Compound 70],2.84^[a]
4,CCOC(=O)C(C#N)=C(NC(C)c1ccccn1)c1nsc(Cl)c1Cl (stereo not drawn) [Compound 71],3.35^[a]
5,CCOC(=O)C(C#N)=C(NC(c1cc2ccccc2s1)C(F)(F)F)c1ncc(C(F)(F)F)cc1Cl (stereo not drawn) [Compound 73],4.94^[a]
6,CCOC(=O)C(C#N)=C(NC(C)c1nc(C)c(C)s1)c1conc1C (stereo not drawn) [Compound 74],3.02^[a]
7,CCOC(=O)C(C#N)=C(NCc1nccs1)c1ncc(C(F)(F)F)cc1Cl [Compound 75],2.84^[a]
8,CCOC(=O)C(C#N)=C(NCc1nccs1)c1conc1C [Compound 76],2.04^[a]
9,CCOC(=O)C(C#N)=C(NC(C)c1nccs1)c1conc1C (stereo not drawn) [Compound 77],2.4^[a]
10,CCOC(=O)C(C#N)=C(NC(C)Cc1c[nH]c2ccccc12)c1conc1C (stereo not drawn) [Compound 78],3.15^[a]
11,CCOC(=O)C(C#N)=C(NCc1nccs1)c1c(C)nn(C)c1F [Compound 80],2.01^[a]
12,CCOC(=O)C(C#N)=C(NCc1ccccn1)c1conc1C [Compound 81],1.96^[a]
13,CCOC(=O)C(C#N)=C(NC(C)c1ccccn1)c1conc1C (stereo not drawn) [Compound 82],2.36^[a]
14,COC(=O)C(C#N)=C(NCc1nccs1)c1ncc(C(F)(F)F)cc1Cl [Compound 83],2.63^[a]
15,CCOC(=O)C(C#N)=C(NC(C)c1nccs1)c1sccc1Br (stereo not drawn) [Compound 85],3.13^[a]
16,CCOC(=O)C(C#N)=C(NCc1nccs1)c1c(C)nn(C)c1Cl [Compound 86],2.13^[a]
17,CCOC(=O)C(C#N)=C(NCc1ccccn1)c1c(C)nn(C)c1Cl [Compound 87],2.02^[a]
18,CCOC(=O)C(C#N)=C(NCc1nccs1)c1sccc1Br [Compound 88],2.67^[a]

row,SMILES,Log P
1,CCOC(=O)C(C#N)=C(NC(C)Cc1c[nH]c2ccccc12)c1sccc1Br (stereo not drawn) [Compound 91],3.8^[a]
2,CCOC(=O)C(C#N)=C(NC(C)c1nc(C)c(C)s1)c1sccc1Br (stereo not drawn) [Compound 92],3.8^[a]
3,CCOC(=O)C(C#N)=C(NC(c1cc2ccccc2s1)C(F)(F)F)c1conc1C (stereo not drawn) [Compound 93],4.24^[a]
4,CCOC(=O)C(C#N)=C(NC(C)c1nc(C)c(C)s1)c1c(C)nn(C)c1Cl (stereo not drawn) [Compound 94],3.12^[a]
5,CCOC(=O)C(C#N)=C(NCc1nccs1)c1sccc1C(F)(F)F [Compound 95],2.82^[a]
6,CCOC(=O)C(C#N)=C(NC(C)c1nccs1)c1sccc1C(F)(F)F (stereo not drawn) [Compound 96],3.31^[a]
7,CCOC(=O)C(C#N)=C(NC(C)c1nc(C)c(C)s1)c1sccc1C(F)(F)F (stereo not drawn) [Compound 97],3.92^[a]
8,CCOC(=O)C(C#N)=C(NC(C)c1nccs1)c1c(C)nn(C)c1Cl (stereo not drawn) [Compound 98],2.52^[a]
9,CCOC(=O)C(C#N)=C(NCc1ccccn1)c1sccc1Br [Compound 99],2.61^[a]
10,CCOC(=O)C(C#N)=C(NC(C)c1ccccn1)c1sccc1Br (stereo not drawn) [Compound 100],3.1^[a]
11,CCOC(=O)C(C#N)=C(NCc1ccccn1)c1sccc1C(F)(F)F [Compound 102],2.84^[a]
12,CCOC(=O)C(C#N)=C(NC(C)c1ccccn1)c1sccc1C(F)(F)F (stereo not drawn) [Compound 103],3.27^[a]
13,CCOC(=O)C(C#N)=C(NCc1nccs1)c1ccsc1Br [Compound 104],2.66^[a]
14,CCOC(=O)C(C#N)=C(NC(C)c1nccs1)c1ccsc1Br (stereo not drawn) [Compound 105],3.1^[a]
15,CCOC(=O)C(C#N)=C(NC(C)Cc1c[nH]c2ccccc12)c1ccsc1Br (stereo not drawn) [Compound 106],3.8^[a]
16,COC(=O)C(C#N)=C(NC1CCCCNC1=O)c1cccnc1Cl (stereo not drawn) [Compound 123],1.57^[a]
17,COC(=O)C(C#N)=C(NC(C)c1ncc(Br)cc1Cl)c1cccnc1Cl (stereo not drawn) [Compound 124],3.24^[a]

# More lines, now with the values ahead:
row,Log P,SMILES
1,4.89^[a],CCOC(=O)C(C#N)=C(NC(c1cc2ccccc2s1)C(F)(F)F)c1sccc1C(F)(F)F (stereo not drawn) [Compound 107]
2,3.94^[a],CCOC(=O)C(C#N)=C(NC(C)Cc1c[nH]c2ccccc12)c1sccc1C(F)(F)F (stereo not drawn) [Compound 108]
3,0.82^[a],COC(=O)C(C#N)=C(NC(C)c1cccnc1)c1cccnc1Cl (stereo not drawn) [Compound 109]
4,1.99^[a],COC(=O)C(C#N)=C(NC(C)c1ccccn1)c1cccnc1Cl (stereo not drawn) [Compound 110]
5,3.7^[a],CCOC(=O)C(C#N)=C(NC(C)c1nc(C)c(C)s1)c1ccsc1Br (stereo not drawn) [Compound 112]
6,3.24^[a],CCOC(=O)C(C#N)=C(NC(C)Cc1cc2ccccc2[nH]1)c1c(C)nn(C)c1Cl (stereo not drawn) [Compound 113]
7,2.53^[a],CCOC(=O)C(C#N)=C(NCc1ccccn1)c1ccsc1Br [Compound 115]
8,3.1^[a],CCOC(=O)C(C#N)=C(NC(C)c1ccccn1)c1ccsc1Br (stereo not drawn) [Compound 116]
9,3.27^[a],CCOC(=O)C(C#N)=C(NC(C)C1CCCO1)c1cc(C)oc1C (stereo not drawn) [Compound 118]
10,2.14^[a],CCOC(=O)C(C#N)=C(NC1CCCCNC1=O)c1cc(C)oc1C (stereo not drawn) [Compound 119]
11,1.35^[a],COC(=O)C(C#N)=C(NC1COC1)c1cccnc1Cl [Compound 120]
12,1.38^[a],COC(=O)C(C#N)=C(NC(CN1CCOCC1)C1CC1)c1cccnc1Cl (stereo not drawn) [Compound 121]
13,2.08^[a],COC(=O)C(C#N)=C(NC1CSC1)c1cccnc1Cl [Compound 122]
14,1.33^[a],COC(=O)C(C#N)=C(NC1CCS(=O)(=O)C1)c1cccnc1Cl (stereo not drawn) [Compound 125]
15,2.17^[a],COC(=O)C(C#N)=C(NC(C)C1CCCO1)c1cccnc1Cl (stereo not drawn) [Compound 126]
16,2.33^[a],COC(=O)C(C#N)=C(NCc1nccs1)c1sc(C)nc1C(F)(F)F [Compound 132]
17,2.37^[a],COC(=O)C(C#N)=C(NCc1ccccn1)c1sc(C)nc1C(F)(F)F [Compound 134]
18,2.43^[a],CCOC(=O)C(C#N)=C(NCc1nccs1)c1cn(C)nc1C(F)(F)F [Compound 138]
19,2.36^[a],CCOC(=O)C(C#N)=C(NCc1ccccn1)c1cn(C)nc1C(F)(F)F [Compound 139]
20,2.66^[a],CCOC(=O)C(C#N)=C(NCc1nccs1)c1sc(C)nc1C(F)(F)F [Compound 141]
21,2.7^[a],CCOC(=O)C(C#N)=C(NCc1ccccn1)c1sc(C)nc1C(F)(F)F [Compound 144]
22,3.09^[a],CCOC(=O)/C(C#N)=C(\NC(C)c1nccs1)c1sccc1Cl (stereo not drawn) [Compound 149]

# Same assay, conditions: pH 7.5
row,Log P,SMILES
1,1.59,CCOC(=O)C(C#N)=C(NC(C)Cn1cncn1)c1cccnc1Cl (stereo not drawn) [Compound 84]
2,2.56,C=CCOC(=O)C(C#N)=C(NC(C)c1nccs1)c1cccnc1Cl (stereo not drawn) [Compound 89]
3,3.66,CCOC(=O)C(C#N)=C(NC(C)Cn1nc(C(F)(F)C(F)(F)F)nc1SC)c1cccnc1Cl (stereo not drawn) [Compound 127]

row,SMILES,Log P
1,CCOC(=O)C(C#N)=C(NC(C)c1nccs1)c1ccc(Cl)nc1Cl (stereo not drawn) [Compound 72],3.01
2,CCOC(=O)C(C#N)=C(NC(C)c1nccs1)c1cccnc1F (stereo not drawn) [Compound 79],2.32
